Values of other authors as cited in PMC8854719, “Phase 1A/1B dose-escalation and -expansion study to evaluate the safety, pharmacokinetics, food effects and antitumor activity of pamiparib in advanced solid tumours” (British Journal of Cancer, 2021).

Settings: Phase 1 portion of NCT03333915, patients in China; cited from earlier work

C[C@]12CCCN1CC1=NNC(=O)c3cc(F)cc4[nH]c2c1c34 [pamiparib]
Anaemia, Grade ≥3: 27%
